Measurements reported in ChEMBL document CHEMBL4622970, “Design, Synthesis, and Evaluation of New Quinazolinone Derivatives that Inhibit Bloom Syndrome Protein (BLM) Helicase, Trigger DNA Damage at the Telomere Region, and Synergize with PARP Inhibitors” (J Med Chem, 2020).
The source made the active and inactive calls. No cut-off for these calls is given here.

Columns and labels:
[1] = target: T1, RecQ-like DNA helicase BLM (Homo sapiens, UniProt P54132); assay: (§1) Inhibition of His-tagged BLM (642 to 1296 residues) (unknown origin) expressed in Escherichia coli BL21 (DE3) cells assessed as reduction in DNA unwinding activity using 5'-biotin-labeled forked DNA as substrate preincubated for 1 hr followed by substrate addition and measured after 1 hr by electrophoretic mobility shift assay
[2] = target: T1, RecQ-like DNA helicase BLM; assay: as §1, with “activity at <10 uM” for “activity”
HCT-116 = assay: Cytotoxicity against human HCT116 cells by MTT assay; format: functional, cell-based
[3] = target: T1, RecQ-like DNA helicase BLM; assay: Inhibition of BLM in human HCT116 cells assessed as down regulation of HRR level at 0.5 uM measured after 24 hrs by luciferase reporter gene assay; format: cell-based; details: HCT-116
[4] = target: T1, RecQ-like DNA helicase BLM; assay: Binding affinity to His-tagged BLM (642 to 1296 residues) (unknown origin) expressed in Escherichia coli BL21 (DE3) cells assessed as inhibition of protein interaction with 5'-biotin-labeled forked DNA measured after 1 hr by ELISA
[5] = target: T1, RecQ-like DNA helicase BLM; assay: Inhibition of BLM in human HCT116 cells assessed as increase in gamma-H2AX level at 2 uM measured after 24 hrs by Western blot analysis; format: cell-based; details: HCT-116
[6] = target: T1, RecQ-like DNA helicase BLM; assay: Binding affinity to BLM in human HCT116 cells cotransfected with DSB model and I-SceI plasmid assessed as reduction in recruitment of protein to DNA region distant from DSB site at 1 uM measured after 24 hrs by chromatin immunoprecipitation assay; format: cell-based; details: HCT-116
[7] = system: RecQ-like DNA helicase BLM (Homo sapiens), P54132 [I1168A]; assay: Binding affinity to His-tagged BLM I1168A mutant (unknown origin) expressed in Escherichia coli BL21 (DE3) cells by isothermal calorimetric titration assay
[8] = target: T1, RecQ-like DNA helicase BLM; assay: Inhibition of BLM in human HCT116 cells assessed as potentiation of niraparib-induced cytotoxicity at 1 to 2 uM measured after 48 hrs by MTT assay; format: cell-based; details: HCT-116
[9] = system: RecQ-like DNA helicase BLM (Homo sapiens), P54132 [H996A]; assay: Binding affinity to His-tagged BLM H996A mutant (unknown origin) expressed in Escherichia coli BL21 (DE3) cells by isothermal calorimetric titration assay
[10] = target: T1, RecQ-like DNA helicase BLM; assay: Binding affinity to wild-type His-tagged BLM (642 to 1296 residues) (unknown origin) expressed in Escherichia coli BL21 (DE3) cells by isothermal calorimetric titration assay
[11] = target: T1, RecQ-like DNA helicase BLM; assay: Binding affinity to BLM in human HCT116 cells cotransfected with DSB model and I-SceI plasmid assessed as reduction in recruitment of protein to DSB site in DNA at 1 uM measured after 24 hrs by chromatin immunoprecipitation assay; format: cell-based; details: HCT-116
[12] = target: T1, RecQ-like DNA helicase BLM; assay: Inhibition of BLM in human HCT116 cells assessed as potentiation of olaparib-induced cytotoxicity at 1 to 2 uM measured after 48 hrs by MTT assay; format: cell-based; details: HCT-116

T1 sequence (P54132 whole entry, the tested form may be a part): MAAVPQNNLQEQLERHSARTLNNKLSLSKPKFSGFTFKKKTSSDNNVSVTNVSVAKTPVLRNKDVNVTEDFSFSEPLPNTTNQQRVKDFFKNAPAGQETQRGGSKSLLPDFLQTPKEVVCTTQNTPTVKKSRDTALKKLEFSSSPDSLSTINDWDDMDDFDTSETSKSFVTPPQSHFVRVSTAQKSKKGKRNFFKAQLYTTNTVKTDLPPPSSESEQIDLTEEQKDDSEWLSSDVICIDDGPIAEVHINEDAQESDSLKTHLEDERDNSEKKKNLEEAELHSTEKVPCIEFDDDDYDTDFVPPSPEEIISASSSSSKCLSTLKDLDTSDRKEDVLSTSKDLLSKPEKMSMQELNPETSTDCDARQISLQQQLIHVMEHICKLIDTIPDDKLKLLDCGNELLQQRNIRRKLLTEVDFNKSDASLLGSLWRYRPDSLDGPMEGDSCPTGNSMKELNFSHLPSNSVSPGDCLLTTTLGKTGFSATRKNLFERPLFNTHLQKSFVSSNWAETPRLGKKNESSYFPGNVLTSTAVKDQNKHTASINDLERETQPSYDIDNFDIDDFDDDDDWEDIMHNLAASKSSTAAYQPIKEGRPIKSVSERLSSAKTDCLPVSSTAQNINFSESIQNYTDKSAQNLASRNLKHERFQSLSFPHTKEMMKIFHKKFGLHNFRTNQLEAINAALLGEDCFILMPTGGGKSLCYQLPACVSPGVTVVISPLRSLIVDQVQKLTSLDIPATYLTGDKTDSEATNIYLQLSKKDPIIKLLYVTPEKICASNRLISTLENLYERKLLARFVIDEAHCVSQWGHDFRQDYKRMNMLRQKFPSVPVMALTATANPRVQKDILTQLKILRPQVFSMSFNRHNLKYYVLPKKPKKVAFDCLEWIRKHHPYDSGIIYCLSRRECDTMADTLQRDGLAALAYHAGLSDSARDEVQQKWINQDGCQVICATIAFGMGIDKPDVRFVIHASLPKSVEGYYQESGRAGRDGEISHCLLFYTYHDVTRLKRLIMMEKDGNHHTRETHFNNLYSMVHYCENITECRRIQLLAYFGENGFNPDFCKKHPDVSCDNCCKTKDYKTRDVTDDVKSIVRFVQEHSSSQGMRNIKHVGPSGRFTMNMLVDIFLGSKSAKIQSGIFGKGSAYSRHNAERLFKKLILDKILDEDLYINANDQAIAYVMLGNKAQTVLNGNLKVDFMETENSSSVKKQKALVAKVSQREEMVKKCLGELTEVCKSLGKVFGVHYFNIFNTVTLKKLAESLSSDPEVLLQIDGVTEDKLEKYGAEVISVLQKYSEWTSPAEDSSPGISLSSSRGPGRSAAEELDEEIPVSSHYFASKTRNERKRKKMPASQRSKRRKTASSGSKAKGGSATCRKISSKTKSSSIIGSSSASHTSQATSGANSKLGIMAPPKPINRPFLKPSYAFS
Chain of RecQ-like DNA helicase BLM (Homo sapiens), P54132 [H996A] (P54132 whole entry H996A, the tested form may be a part): as the sequence (P54132 whole entry, the tested form may be a part) above, with H996A counted along it
Chain of RecQ-like DNA helicase BLM (Homo sapiens), P54132 [I1168A] (P54132 whole entry I1168A): as the sequence (P54132 whole entry, the tested form may be a part) above, with I1168A counted along it

| SMILES | IC50 [1] [µM] | Inhibition (active/not active) [2] | other results |
| --- | --- | --- | --- |
| CCN(CC)CCNc1ccc2c(=O)n3c(nc2c1)/C(=C/c1ccc(C(C)C)cc1)CC3 | 1.3 | – | – |
| CCN(CC)CCNc1cc2nc3n(c(=O)c2cc1F)CCC3Cc1ccc(CC(C)C)cc1 (centres undefined) | > 10 | Active | – |
| CCN(CC)CCCNc1c2c(nc3ccccc13)/C(=C/c1ccc(C(C)(C)C)cc1)CC2 | – | inactive | – |
| CCN(CC)CCNc1cc2nc3n(c(=O)c2cc1F)CCC3Cc1ccc(C(C)(C)C)cc1 (centres undefined) | > 10 | Active | – |
| CCN(CC)CCNc1cc2nc3n(c(=O)c2cc1F)CC/C3=C\c1ccccc1 | – | inactive | – |
| CCN(CC)CCNc1cc2nc3n(c(=O)c2cc1F)CC/C3=C\c1ccc(N(CC)CC)cc1O | 2.1 | – | Activity (HCT-116): Active; inhibition [3]: Active; IC50 [4]: > 20 µM; inhibition [5]: inactive |
| CCN(CC)CCNc1cc2nc3n(c(=O)c2cc1F)CCC3Cc1ccc(C(C)C)cc1O (centres undefined) | > 10 | Active | – |
| CCN(CC)CCNc1cc2nc3n(c(=O)c2cc1F)CC/C3=C\c1ccc(C(C)(C)C)cc1 | 2.7 | – | Activity (HCT-116): Active; inhibition [3]: Active; inhibition [5]: Active |
| CCOCCNc1cc2nc3n(c(=O)c2cc1F)CC/C3=C\c1ccc(C(C)C)cc1 | > 10 | Active | – |
| CCN(CC)CCNc1cc2nc3n(c(=O)c2cc1F)CCC3Cc1ccc(N(CC)CC)cc1O (centres undefined) | – | inactive | – |
| CC(C)c1ccc(/C=C2\CCc3c2nc2ccccc2c3NCCCN(C)C)cc1 | > 10 | Active | – |
| CCN(CC)CCCNc1cc2nc3n(c(=O)c2cc1F)CC/C3=C\c1ccc(C(C)C)cc1O | 4.2 | – | – |
| CCN(CC)CCCNc1c2c(nc3ccccc13)/C(=C/c1ccc(CC(C)C)cc1)CC2 | > 10 | Active | – |
| CCN(CC)CCCNc1c2c(nc3ccccc13)/C(=C/c1ccc(C(C)C)cc1)CC2 | 8.7 | – | – |
| CCN(CC)CCNc1cc2nc3n(c(=O)c2cc1F)CCC/C3=C\c1ccc(C(C)C)cc1 | > 10 | Active | – |
| CCN(CC)CCNc1cc2nc(/C=C/c3ccc(C(C)C)cc3)n(C)c(=O)c2cc1F | 2.2 | – | Activity (HCT-116): Active; inhibition [3]: Active; inhibition [5]: inactive |
| CCN(CC)CCNc1cc2nc3n(c(=O)c2cc1F)CCC3Cc1ccc(C(C)C)cc1 (centres undefined) | > 10 | Active | – |
| CCN(CC)CCCNc1cc2nc(/C=C/c3ccc(C(C)C)cc3)[nH]c(=O)c2cc1F | > 10 | Active | – |
| CCN(CC)CCCNc1cc2nc(/C=C/c3ccc(C(C)C)cc3)n(CC)c(=O)c2cc1F | 2.8 | – | – |
| CCN(CC)CCNc1cc2nc3n(c(=O)c2cc1F)CC/C3=C\c1ccc(C(C)C)cc1 | 2 | – | Activity (HCT-116): Active; inhibition [3]: Active; inhibition [5]: Active |
| CC(=O)NCCNc1cc2nc3n(c(=O)c2cc1F)CC/C3=C\c1ccc(C(C)C)cc1 | > 10 | Active | – |
| CCc1ccc(/C=C2\CCc3c2nc2ccccc2c3NCCCN(CC)CC)cc1 | > 10 | Active | – |

| SMILES | IC50 [1] [µM] | Inhibition (active/not active) [2] | other results |
| --- | --- | --- | --- |
| CCN(CC)CCCCNc1cc2nc3n(c(=O)c2cc1F)CC/C3=C\c1ccc(C(C)C)cc1 | 1.8 | – | – |
| CCN(CC)CCNc1cc2nc3n(c(=O)c2cc1F)CC/C3=C\c1ccc(O)c(O)c1 | > 10 | Active | – |
| CCN(CC)CCNc1cc2nc3n(c(=O)c2cc1F)CC/C3=C\c1cccs1 | – | inactive | – |
| CCN(CC)CCCNc1cc2nc(/C=C/c3ccc(C(C)C)cc3)n(C)c(=O)c2cc1F | 4.7 | – | – |
| CCN(CC)CCCNc1cc2nc3n(c(=O)c2cc1F)CC/C3=C\c1ccccc1 | – | inactive | – |
| CCCc1ccc(/C=C2\CCn3c2nc2cc(NCCN(CC)CC)c(F)cc2c3=O)cc1 | 3.3 | – | – |
| CCNc1cc2nc(/C=C/c3ccc(C(C)C)cc3)n(CC)c(=O)c2cc1F | – | inactive | – |
| CCN(CC)CCNc1cc2nc3c(cc2cc1F)CC/C3=C\c1ccc(C(C)C)cc1 | > 10 | Active | – |
| CCN(CC)CCNc1cc2nc3n(c(=O)c2cc1F)CCC3Cc1ccc(N(C)C)cc1 (centres undefined) | > 10 | Active | – |
| CCN(CC)CCNc1cc2nc3n(c(=O)c2cc1F)CC/C3=C\c1ccc(CC(C)C)cc1 | 3.1 | – | – |
| CCc1ccc(/C=C2\CCn3c2nc2cc(NCCN(CC)CC)c(F)cc2c3=O)cc1 | 3.2 | – | – |
| CCN(CC)CCNc1cc2nc3n(c(=O)c2cc1F)CC/C3=C\c1ccc(N(C)C)cc1O | 6.4 | – | – |
| CCN(CC)CCNc1cc2nc3n(c(=O)c2cc1F)CC/C3=C\c1ccc(OC)cc1 | – | inactive | – |
| CCN(CC)CCNc1cc2nc3n(c(=O)c2cc1F)CC/C3=C\c1ccc(N(C)C)cc1 | > 10 | Active | – |
| CCN(CC)CCCNc1cc2nc(/C=C/c3ccc(C(C)C)cc3)n(CC(C)C)c(=O)c2cc1F | 3.6 | – | – |
| CCN(CC)CCCNc1cc2nc3n(c(=O)c2cc1F)CC/C3=C\c1ccc(C(C)C)cc1 | 1.5 | – | Activity [6]: Active; Activity [7]: Active; inhibition [8]: Active; Activity [9]: Active; Activity [10]: Active; Activity [11]: Active; inhibition [3]: Active; inhibition [12]: Active |
| CC(C)c1ccc(/C=C2\CCn3c2nc2cc(NCCN(C)C)c(F)cc2c3=O)cc1 | 2.8 | – | Activity (HCT-116): Active; inhibition [3]: Active; IC50 [4]: > 20 µM; inhibition [5]: inactive |
| CCN(CC)CCNc1cc2nc3n(c(=O)c2cc1F)CC/C3=C\c1ccc(O)cc1O | > 10 | Active | – |
| CCN(CC)CCCNc1cc2nc(/C=C/c3ccc(CC(C)C)cc3)[nH]c(=O)c2cc1F | 4.7 | – | – |
| CCN(CC)CCNc1cc2nc3n(c(=O)c2cc1F)CC/C3=C\c1ccc(C(C)C)cc1O | 4 | – | – |
| CC(C)CCNc1cc2nc3n(c(=O)c2cc1F)CC/C3=C\c1ccc(C(C)C)cc1 | – | inactive | – |
